This passage reports IC50 results from patent US9718796B2, “Substituted benzoazepines as toll-like receptor modulators” (VENTIRX PHARMACEUTICALS, INC., priority 2011, dated 2017).

Read-outs that look alike come from different tables or passages of the source.

This assay concerns the target T1, hTLR8 (Homo sapiens, UniProt Q9NR97).
T1 construct: host or cells: HEK293 cells stably transfected with hTLR8
T1 sequence (Q9NR97 27-1041): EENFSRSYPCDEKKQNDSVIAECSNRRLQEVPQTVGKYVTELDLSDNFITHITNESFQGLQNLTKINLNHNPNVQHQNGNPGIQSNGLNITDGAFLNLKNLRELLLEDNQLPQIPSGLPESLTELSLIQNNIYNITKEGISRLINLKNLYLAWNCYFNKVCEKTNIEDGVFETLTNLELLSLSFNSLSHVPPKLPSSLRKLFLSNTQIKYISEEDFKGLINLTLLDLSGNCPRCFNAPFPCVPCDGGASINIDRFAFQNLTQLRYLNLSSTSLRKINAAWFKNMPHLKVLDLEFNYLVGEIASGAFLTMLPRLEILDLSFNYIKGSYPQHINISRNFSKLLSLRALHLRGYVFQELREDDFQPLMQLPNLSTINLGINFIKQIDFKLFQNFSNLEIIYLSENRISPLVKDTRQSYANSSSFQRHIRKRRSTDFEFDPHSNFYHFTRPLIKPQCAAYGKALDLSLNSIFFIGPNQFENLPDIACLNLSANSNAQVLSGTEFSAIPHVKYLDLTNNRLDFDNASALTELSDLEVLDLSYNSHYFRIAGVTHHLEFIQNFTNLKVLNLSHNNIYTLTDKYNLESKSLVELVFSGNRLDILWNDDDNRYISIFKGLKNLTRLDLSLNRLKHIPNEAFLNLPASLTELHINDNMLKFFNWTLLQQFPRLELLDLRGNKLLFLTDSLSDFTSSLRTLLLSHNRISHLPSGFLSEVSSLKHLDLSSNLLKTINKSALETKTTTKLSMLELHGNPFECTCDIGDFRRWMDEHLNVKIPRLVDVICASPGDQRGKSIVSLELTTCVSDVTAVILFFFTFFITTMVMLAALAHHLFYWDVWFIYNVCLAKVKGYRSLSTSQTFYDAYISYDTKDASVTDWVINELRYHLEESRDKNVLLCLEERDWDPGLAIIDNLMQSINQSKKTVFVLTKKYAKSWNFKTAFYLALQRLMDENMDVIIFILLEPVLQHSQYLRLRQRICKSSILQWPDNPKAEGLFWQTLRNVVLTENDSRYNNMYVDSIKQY
The experiment in a line: HEK-293 hTLR8 transfectant antagonist assay (NF-κB driven SEAP reporter). The format is cell-based. The note with it: hTLR8 reporter cells. As to the method: The HEK-293 hTLR transfectant assay employs HEK293 cells stably transfected with various hTLRs and transiently co-transfected with a plasmid containing an NF-κB driven secreted embryonic alkaline phosphate (SEAP) reporter gene. Stimulation of TLRs activates their downstream signaling pathways and induces nuclear translocation of the transcription factor NF-κB. Reporter gene activity is then measured using a spectrophotometric assay. To measure antagonist activity, human embryonic kidney (HEK) cells (e.g., 293XL-hTLR8 cells available from InvivoGen, San Diego, Calif.) are prepared according to supplier's instructions and incubated with various concentrations of test compound overnight. The amount of induced […] is measured by reading the absorbance at 650 nm. The compounds of the invention have an MC50 of 25 μM or less, wherein MC50 is defined as the concentration at which 50% of maximum induction is seen. For the TLR8 antagonist assays, cells are transiently transfected with the reporter gene on Day 1 per the supplier's instructions. Antagonist compounds are added to the cultures on Day 2 followed by addition of a TLR8 agonist approximately 2 hours later. Cultures are incubated overnight and SEAP activity is measured on Day 3. In a typical assay, 50,000 HEK239 hTLR8 cells are seeded per culture well and transiently transfected with the SEAP reporter gene. Antagonists are added to cultures in culture medium and […] DMSO over a concentration range of 0.1 nanomolar to 10 micromolar. TLR8 agonists are added to cultures 2 hours later at a fixed concentration (e.g., 1 micromolar or 10 micromolar of Compound A) and cultures are then incubated for 16-24 hrs at 37° C. in a humidified CO incubator. Antagonists are also evaluated for activity in the absence of agonist. TLR8 antagonist activity was measured in a hTLR8 assay format, measuring IC50 values. […] IC50s were then calculated.

The mark [1] stands for this setting: IC50, nM, vs. 3M002 1 μM, agonist 3M002 1 μM.
Where [2] appears, read: IC50, nM, vs. 3M002 10 μM, agonist 3M002 10 μM.
The mark [3] stands for this setting: IC50, nM, vs. VTX-378 1 μM, TLR8 agonist VTX-378 (Compound A) 1 μM.
Setting [4] is: TLR8 agonist VTX-378 (Compound A) 0.5 μM, read-out: IC50, nM, vs. VTX-378 0.5 μM.
The mark [5] stands for this setting: IC50, nM, vs. VTX-378 10 μM, TLR8 agonist VTX-378 (Compound A) 10 μM.

Take `CCOC(=O)C1=Cc2cc(Oc3ccc(OC)cc3)ccc2N=C(N)C1` [Compound 3125]: the IC50 is 1000 to 10000 nM under setting [1], ≥ 10000 nM under setting [2], 1000 to 10000 nM under setting [3] and 1000 to 10000 nM under setting [4].
As to `CCOC(=O)C1=Cc2cc(Oc3ccc(C(=O)N(C)C)cc3)ccc2N=C(N)C1` [Compound 3093], the IC50 was ≥ 10000 nM under setting [2], ≥ 10000 nM under setting [3] and ≥ 10000 nM under setting [5].
Turning to `CCOC(=O)C1=Cc2cc(-c3ccc(N4CCOC4=O)cc3)ccc2N=C(N)C1` [Compound 3300, Ethyl 2-amino-7-[4-(2-oxo-1,3-oxazolidin-3-yl)phenyl]-3H-1-benzazepine-4-carboxylate], the IC50 by setting is: under setting [1], < 1000 nM; under setting [2], < 1000 nM; under setting [3], < 1000 nM; under setting [4], < 1000 nM.
Regarding `CCOC(=O)C1=Cc2cc(-c3ccc(OC)cc3)ccc2N=C(N)C1` [Compound 3098, Ethyl 2-amino-7-(4-methoxyphenyl)-3H-1-benzazepine-4-carboxylate], the IC50 is, setting by setting: under setting [2], 1000 to 10000 nM; under setting [3], ≥ 10000 nM; under setting [4], 1000 to 10000 nM.
Take `CCOC(=O)C1=Cc2cc(Oc3cccc(C(F)(F)F)c3)ccc2N=C(N)C1` [Compound 3046]: the IC50 is 1000 to 10000 nM under setting [2], 1000 to 10000 nM under setting [3] and ≥ 10000 nM under setting [5].
For the molecule `CCOC(=O)C1=Cc2cc(C3=CCN(C(=O)OCC)CC3)ccc2N=C(N)C1` [Compound 3202], the IC50 is < 1000 nM under setting [3] and < 1000 nM under setting [5].
With `CCOC(=O)C1=Cc2cc(Oc3ccccc3C)ccc2N=C(N)C1` [Compound 3128], the IC50 under setting [1] was < 1000 nM, the IC50 under setting [2] lay in the range of 1000 to 10000 nM, the IC50 under setting [3] was in the range of 1000 to 10000 nM and the IC50 under setting [4] is < 1000 nM.
Consider `CC(C)NC(=O)C1=Cc2cc(-c3ccc(C(=O)N4CCCC4)cc3)ccc2N=C(N)C1` [Compound 3009, 2-Amino-N-isopropyl-7-[4-(pyrrolidin-1-ylcarbonyl)phenyl]-3H-1-benzazepine-4-carboxamide], for which the IC50 under setting [3] was in the range of 1000 to 10000 nM and the IC50 under setting [5] is ≥ 10000 nM.
On to `CCCN(CC(N)=O)C(=O)C1=Cc2cc(-c3ccc(NC(=O)OCC)cc3Cl)ccc2N=C(N)C1` [Compound 3336, Ethyl (4-{2-amino-4-[(2-amino-2-oxoethyl)(propyl)carbamoyl)-3H-1-benzazepin-7-yl}-3-chlorophenyl)carbamate], for which the half-inhibitory concentration (IC50) under setting [1] was < 1000 nM, the IC50 under setting [2] lay in the range of 1000 to 10000 nM, the IC50 under setting [3] fell in the range of 1000 to 10000 nM and the IC50 under setting [4] is < 1000 nM.
On to `CCOC(=O)C1=Cc2cc(-c3ccccc3Cl)ccc2N=C(N)C1` [Compound 3127, Ethyl 2-amino-7-(2-chlorophenyl)-3H-1-benzazepine-4-carboxylate], for which the IC50 is < 1000 nM under setting [1], 1000 to 10000 nM under setting [2], < 1000 nM under setting [3] and < 1000 nM under setting [4].
As for `CCOC(=O)C1=Cc2cc(-c3ccc(C(=O)N4CCCC4)cc3)ccc2N=C(NOC)C1` [Compound 2930], the IC50 under setting [3] was ≥ 10000 nM and the IC50 under setting [5] is ≥ 10000 nM.
For `CCOC(=O)C1=Cc2cc(-c3ccc(C(=O)OCC)cc3)ccc2N=C(N)C1` [Compound 3101, Ethyl 2-amino-7-[4-(ethoxycarbonyl)phenyl]-3H-1-benzazepine-4-carboxylate], the concentration for half-maximal inhibition (IC50) was ≥ 10000 nM under setting [2], ≥ 10000 nM under setting [3] and 1000 to 10000 nM under setting [4].
Take `CCOC(=O)C1=Cc2cc(C(=O)OC(C)C)ccc2N=C(N)C1` [Compound 3197]: the IC50 reads like this: under setting [3], 1000 to 10000 nM; under setting [5], 1000 to 10000 nM.
Regarding `CCOC(=O)C1=Cc2cc(C3=CCN(C(=O)N4CCCC4)CC3)ccc2N=C(N)C1` [Compound 3254], the IC50 was in the range of 1000 to 10000 nM under setting [3] and 1000 to 10000 nM under setting [4].
Turning to `CCOC(=O)C1=Cc2cc(Oc3ccccc3)ccc2N=C(N)C1` [Compound 2946], the IC50 is, setting by setting: under setting [3], 1000 to 10000 nM; under setting [5], ≥ 10000 nM.
`CCOC(=O)C1=Cc2cc(-c3ccc(C)cc3)ccc2N=C(N)C1` [Compound 3272, Ethyl 2-amino-7-(4-methylphenyl)-3H-1-benzazepine-4-carboxylate]: the IC50 is < 1000 nM under setting [1], 1000 to 10000 nM under setting [2], 1000 to 10000 nM under setting [3] and 1000 to 10000 nM under setting [4].
As for `CCOC(=O)C1=Cc2cc(-c3ccccc3C(C)C)ccc2N=C(N)C1` [Compound 3141, Ethyl 2-amino-7-(2-isopropylphenyl)-3H-1-benzazepine-4-carboxylate], the IC50 runs as follows: under setting [3], 1000 to 10000 nM; under setting [4], < 1000 nM.
Taken in the same sequence, the figures for `CCOC(=O)C1=Cc2cc(-c3cccc(C)c3Cl)ccc2N=C(N)C1` [Compound 3294, Ethyl 2-amino-7-(2-chloro-3-methylphenyl)-3H-1-benzazepine-4-carboxylate] were 1000 to 10000 nM and 1000 to 10000 nM.
Taken in the same sequence, the figures for `CCOC(=O)Nc1ccc(-c2ccc3c(c2)C=C(C(=O)OCC)CC(N)=N3)cc1` [Compound 3199, Ethyl 2-amino-7-{4-[(ethoxycarbonyl)amino]phenyl}-3H-1-benzazepine-4-carboxylate] were < 1000 nM and < 1000 nM.
As to `CCOC(=O)C1=Cc2cc(-c3ccc(C(=O)N4CCCC4)cc3C)ccc2N=C(N)C1` [Compound 3119, Ethyl 2-amino-7-[2-methyl-4-(pyrrolidin-1-ylcarbonyl)phenyl]-3H-1-benzazepine-4-carboxylate], the IC50 reads like this: under setting [2], < 1000 nM; under setting [3], < 1000 nM; under setting [4], < 1000 nM.
For the molecule `CCOC(=O)C1=Cc2cc(-c3ccccc3OC)ccc2N=C(N)C1` [Compound 3264, Ethyl 2-amino-7-(2-methoxyphenyl)-3H-1-benzazepine-4-carboxylate], the half-maximal inhibitory concentration (IC50) under setting [2] is < 1000 nM, the 50% inhibitory concentration (IC50) under setting [3] is < 1000 nM and the concentration for half-maximal inhibition (IC50) under setting [4] was < 1000 nM.
Regarding `CCOC(=O)C1=Cc2cc(-c3cccc(OC)c3)ccc2N=C(N)C1` [Compound 3267, Ethyl 2-amino-7-(3-methoxyphenyl)-3H-1-benzazepine-4-carboxylate], the IC50 reads like this: under setting [2], 1000 to 10000 nM; under setting [3], 1000 to 10000 nM; under setting [4], 1000 to 10000 nM.
Take `CCOC(=O)C1=Cc2cc(-c3cccc(OC)c3Cl)ccc2N=C(N)C1` [Compound 3386, Ethyl 2-amino-7-(2-chloro-3-methoxyphenyl)-3H-1-benzazepine-4-carboxylate]: the IC50 is < 1000 nM under setting [3] and < 1000 nM under setting [4].
As to `CCOC(=O)C1=Cc2cc(-c3ccc(C(=O)N4CCCC4)cc3)ccc2N=C(NCCO)C1` [Compound 2968], the IC50 was 1000 to 10000 nM under setting [3], ≥ 10000 nM under setting [5] and 1000 to 10000 nM under setting [4].
Regarding `CCOC(=O)C1=Cc2cc(-c3cccc(C(=O)N(C)C)c3)ccc2N=C(N)C1` [Compound 3058, Ethyl 2-amino-7-[3-(dimethylcarbamoyl)phenyl]-3H-1-benzazepine-4-carboxylate], the IC50 reads like this: under setting [3], 1000 to 10000 nM; under setting [5], ≥ 10000 nM.
In the case of `CCOC(=O)C1=Cc2cc(-c3ccc(C(=O)N4CCCC4)cc3Cl)ccc2N=C(N)C1` [Compound 3322], the IC50 reads like this: under setting [2], < 1000 nM; under setting [3], < 1000 nM; under setting [4], < 1000 nM.

A word on the IC50: it is the point on the concentration scale where inhibition reaches its midpoint.
